Experimental data from US7718764B2, “Biologically active peptide [sequence] derivatives” (CMS Peptides Patent Holding Company Limited, priority 2004, dated 2010).
Marks after values point to notes of the source that are not given here.

Key:
[1] = test system: mice NK cell; experiment: Mice NK cell activity in vivo (i.p. dosing 20 days, spleen effector cells vs YAC-1 target cells, MTT); set-up: species or system BALB/c mice
Experimental: Animals were randomized into two peptide groups (200 μg/kg/day and 50 μg/kg/day), Cyclosporine A group (10 mg/kg/day), and saline group (0.5 ml/day). Each group contained 10 mice, in which half were female and half were male. All test substances were dissolved in 0.5 ml saline and administered intraperitoneally once per day for 20 days. T-lymphocyte transformation and NK cell activity were examined on the day immediately following the last injection. YAC-1 target cells were brought to log phase and adjusted to a density of 1×10^5/ml. Mice spleen cells prepared in section 2.2.2 above were adjusted to a density of 4×10^6/ml and used as effector cells. The cell suspensions were inoculated onto 96 wells cell culture plates as follows: Effector cell wells: 100 μl spleen cell suspension+100 μl RPMI-1640 Assay wells: 100 μl spleen cell suspension+100 μl YAC-1 cell suspension Target cell wells: 100 μl YAC-1 cell suspension+100 μl RPMI-1640 Three assay wells and three effector cell wells were set up for each animal, and 12 target cell wells were set up per cell culture plate. The plates were incubated at 37° C., 5% CO2 for 4 hours, then MTT was added and the plates were read at OD 570 nm referenced at 630 nm with ELISA reader. NK cell activity (%)=1−[(assay wells OD−effector cell wells OD)/target cell wells OD]×100%

[2] = test system: mice T-lymphocyte; experiment: Mice T-lymphocyte transformation in vivo (i.p. dosing 20 days, spleen cells + ConA, MTT, stimulation index); set-up: species or system BALB/c mice; conditions: for Effect on mice T-lymphocyte transformation in vivo: at suitable dosages, vs saline control P<0.05
Experimental: Animals were randomized into two peptide groups (200 μg/kg/day and 50 μg/kg/day), Cyclosporine A group (10 mg/kg/day), and saline group (0.5 ml/day). Each group contained 10 mice, in which half were female and half were male. All test substances were dissolved in 0.5 ml saline and administered intraperitoneally once per day for 20 days. T-lymphocyte transformation and NK cell activity were examined on the day immediately following the last injection. The day after the last test substance administration, the mice were sacrificed by cervical dislocation. The spleens were isolated aseptically and manually dispersed in 10% FBS RPMI-1640 solution using an injection needle. The dispersed cell suspension was further sieved through a 100 gauge 150 μm diameter stainless steel sieve and adjusted to 4×10^6/ml. The cell suspensions were inoculated onto a 96 wells cell culture plate, 100 μl/well with the following design. Assay wells: 100 μl cell suspension+100 μl ConA Control wells: 100 μl cell suspension+100 μl RPMI-1640 Four assay and four control wells were set up for each animal. The plates were incubated at 37° C., 5% CO2 for 68 hours. MTT was then added and the plates read at OD 570 nm referenced at 630 nm with ELISA reader. Stimulation Index SI (%)=(assay well OD/control well OD)×100%.

[3] = test system: S180 sarcoma cells; experiment: Growth of KM mice-transplanted S180 sarcoma cells in vivo; set-up: unit not given here; conditions: for Sarcoma volume: V=(1/6)πABC, saline 1.20 ± 0.28
Experimental: S180 sarcoma cells were transplanted intraperitoneally into KM mice for 6-8 days and the ascites aseptically collected. The cell concentration was adjusted to 1×10^7 per ml with 10% FBS RPMI-1640, and 0.2 ml cell suspension was injected through the armpit into each KM mice for developing the sarcoma bearing mice model. […] Intraperitoneal injection of test substances started on the day immediately after tumor transplantation and continued once per day for 20 consecutive days.
On the day after the last test substance administration, the sarcomas were removed from the mice and weighed. The diameters of each sarcoma on the three planes (A, B, C) were measured by a vernier caliper. The volume of the sarcoma was calculated by the formula: V=(⅙)πABC.

[4] = at suitable dosage, vs saline control P<0.05
[5] = Table 12, 250 μg/kg/day, saline 1.87 ± 0.52
[6] = Table 12, 500 μg/kg/day, saline 1.87 ± 0.52
[7] = Table 11, 10 μg/kg/day i.p. 20 days, saline 5.07 ± 5.46
[8] = Table 11, 50 μg/kg/day i.p. 20 days, saline 5.07 ± 5.46
[9] = Table 9, 50 μg/kg/day i.p. 20 days, saline 55.3 ± 6.1

| Compound | Sarcoma volume ([3]; Table 12, 250 μg/kg/day) | Sarcoma weight [3, 5] | Sarcoma volume ([3]; Table 12, 500 μg/kg/day) | Sarcoma weight [3, 6] | also measured |
| --- | --- | --- | --- | --- | --- |
| LNPK [CMS-010.28] |  |  |  |  | NK cell activity (%) ([1]; Table 8, 200 μg/kg/day i.p. 20 days, saline 76.0 ± 4.3): 70.3 ± 6.7 %; Effect on mice NK cell activity in vivo (suppression) [1, 4]: suppress; SI ([2]; Table 4, 200 μg/kg/day i.p. 20 days, saline 3.63 ± 0.69): 2.70 ± 0.37; Effect on mice T-lymphocyte transformation in vivo [2]: suppress |
| LTEAPLNPK [CMS-010.19] | 0.46 ± 0.58 | 0.41 ± 0.45*^@ | 0.40 ± 0.42 | 0.68 ± 0.68 |  |
| PEEHPTLLTEAPLNPK [CMS-010.04] | 0.17 ± 0.12*^@ | 0.27 ± 0.19*^@ | 0.40 ± 0.28 | 0.62 ± 0.44 | SI ([2]; Table 6, 50 μg/kg/day i.p. 20 days, saline 2.24 ± 0.52): 1.56 ± 0.25; Effect on mice T-lymphocyte transformation in vivo [2]: suppress |
| VAPEE [CMS-010.27] | 0.58 ± 0.58 | 0.78 ± 0.68 | 0.51 ± 0.33 | 1.05 ± 0.86 |  |
| VAPEEHPT [CMS-010.20] | 0.88 ± 0.77 | 1.00 ± 0.76 | 0.54 ± 0.51 | 0.59 ± 0.46 |  |
| VAPEEH [CMS-010.25] | 0.48 ± 0.37 | 0.65 ± 0.53 | 0.26 ± 0.21*^@ | 0.52 ± 0.38 | SI ([2]; Table 5, 200 μg/kg/day i.p. 20 days, saline 3.15 ± 0.83): 2.43 ± 0.69; Effect on mice T-lymphocyte transformation in vivo [2]: suppress |
| VAPEEHPTL [CMS-010.18] | 0.27 ± 0.20*^@ | 0.44 ± 0.31*^@ | 0.58 ± 0.42 | 0.59 ± 0.48 |  |
| VAPE [CMS-010.29] | 1.02 ± 0.66 | 1.24 ± 0.72 | 0.40 ± 0.11 | 0.55 ± 0.41 |  |
| TLLTEAPLNPK [CMS-010.15] | 0.41 ± 0.37 | 0.45 ± 0.35*^@ | 0.63 ± 0.35 | 0.68 ± 0.36 |  |
| O=P1(N(CCCl)CCCl)NCCCO1 (centres unmarked) [Cyclophosphamide, reference compound] |  |  |  |  | Sarcoma volume ([3]; Table 12, 40 mg/kg/day): 0.76 ± 0.66; Sarcoma weight ([3]; Table 12, 40 mg/kg/day, saline 1.87 ± 0.52): 1.07 ± 0.80 |
| VAPEEHPTLLTEAPLNP [CMS-010.03] | 0.31 ± 0.22 | 0.68 ± 0.46 | 0.27 ± 0.33*^@ | 0.33 ± 0.35*^@ |  |
| VAPEEHPTLLTEAPL [CMS-010.07] | 0.24 ± 0.13*^@ | 0.32 ± 0.14*^@ | 0.37 ± 0.20 | 0.52 ± 0.25 |  |
| EHPTLLTEAPLNPK [CMS-010.09] | 0.37 ± 0.44 | 0.45 ± 0.38*^@ | 0.84 ± 0.84 | 0.85 ± 0.70 |  |
| LLTEAPLNPK [CMS-010.17] | 0.40 ± 0.24 | 0.65 ± 0.41 | 0.55 ± 0.34 | 0.91 ± 0.46 |  |
| VAPEEHPTLL [CMS-010.16] | 0.61 ± 0.44 | 0.63 ± 0.47 | 0.92 ± 0.36 | 0.99 ± 0.42 |  |
| COc1cccc2c1C(=O)c1c(O)c3c(c(O)c1C2=O)C[C@@](O)(C(=O)CO)C[C@@H]3O[C@H]1C[C@H](N)[C@H](O)[C@H](C)O1 [Adriamycin, reference compound] |  |  |  |  | Sarcoma weight ([3]; Table 11, 2 mg/kg/day i.p. 20 days, saline 5.07 ± 5.46): 1.52 ± 1.75 |
| APEEHPTLLTEAPLNPK [CMS-010.02] | 0.36 ± 0.40 | 0.68 ± 0.72 | 0.65 ± 0.67 | 0.97 ± 0.85 |  |
| VALLT [CMS-010.103] |  |  |  |  | Sarcoma weight [3, 7]: 1.72 ± 1.53; Sarcoma weight [3, 8]: 1.48 ± 1.44 |
| VAPEEHPTLLTEAP [CMS-010.08] | 0.20 ± 0.14*^@ | 0.38 ± 0.27*^@ | 1.01 ± 0.63 | 1.05 ± 0.64 |  |
| PTLLTEAPLNPK [CMS-010.13] | 0.91 ± 0.59 | 0.92 ± 0.56 | 0.38 ± 0.23 | 0.73 ± 0.43 | NK cell activity (%) [1, 9]: 70.9 ± 17.5 %; Effect on mice NK cell activity in vivo (enhancement) [1, 4]: enhance |
| VAPEEHP [CMS-010.22] | 0.24 ± 0.08*^@ | 0.28 ± 0.12*^@ | 0.73 ± 0.87 | 0.85 ± 0.73 |  |
| EAPLNPK [CMS-010.23] | 0.21 ± 0.15*^@ | 0.27 ± 0.18^@ |  |  |  |
| VAPEEHPTLLTE [CMS-010.12] |  |  |  |  | SI ([2]; Table 7, 50 μg/kg/d i.p. 20 days, saline 2.96 ± 0.61): 2.12 ± 0.42; Effect on mice T-lymphocyte transformation in vivo [2]: suppress |
| VAPEEHPTLLTEAPLN [CMS-010.05] | 0.23 ± 0.19*^@ | 0.56 ± 0.33 | 0.34 ± 0.22 | 0.47 ± 0.29*^@ |  |
| HPTLLTEAPLNPK [CMS-010.11] | 0.63 ± 0.40 | 0.64 ± 0.31 | 0.95 ± 0.54 | 1.14 ± 0.74 | NK cell activity (%) [1, 9]: 63.5 ± 4.7 %; Effect on mice NK cell activity in vivo (enhancement) [1, 4]: enhance |
| TEAPLNPK [CMS-010.21] | 0.44 ± 0.22 | 0.51 ± 0.29 | 0.44 ± 0.21 | 0.44 ± 0.22*^@ |  |
| NPK [CMS-010.31] | 0.25 ± 0.20*^@ | 0.27 ± 0.19*^@ | 0.43 ± 0.50 | 0.78 ± 0.89 | Sarcoma weight [3, 7]: 1.05 ± 1.28; Sarcoma weight [3, 8]: 1.20 ± 1.60 |
